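Compound exposure: 48 hours, 5 concentrations, 96-well plates. GI50 is the concentration that inhibits growth by half.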 Active and inactive are the calls of the source. Rule as the data show it: active = GI50 up to about 1.1 µM and inactive = higher.
How the values were obtained:
Assay in all cases: growth of human tumour cells (NCI), 48 h
786-0 = system: 786-0
A498 = system: A498
A549 = system: A549
ACHN = system: ACHN
BT-549 = system: BT-549
CAKI-1 = system: CAKI-1
CCRF-CEM = system: CCRF-CEM
COLO 205 = system: COLO 205
DU-145 = system: DU-145
EKVX = system: EKVX
HCT-116 = system: HCT-116
HCT-15 = system: HCT-15
HL-60 = system: HL-60
HOP-62 = system: HOP-62
HOP-92 = system: HOP-92
HT-29 = system: HT-29
Hs-578T = system: Hs-578T
IGROV-1 = system: IGROV-1
K562 = system: K562
KM12 = system: KM12
LOX IMVI = system: LOX IMVI
M14 = system: M14
MCF7 = system: MCF7
MDA-MB-231 = system: MDA-MB-231
MDA-MB-435 = system: MDA-MB-435
MDA-N = system: MDA-N
MOLT-4 = system: MOLT-4
Malme-3M = system: Malme-3M
NCI-H226 = system: NCI-H226
NCI-H23 = system: NCI-H23
NCI-H460 = system: NCI-H460
NCI-H522 = system: NCI-H522
NCI/ADR-RES = system: NCI/ADR-RES
OVCAR-3 = system: OVCAR-3
OVCAR-4 = system: OVCAR-4
OVCAR-5 = system: OVCAR-5
OVCAR-8 = system: OVCAR-8
PC-3 = system: PC-3
RPMI-8226 = system: RPMI-8226
SF-268 = system: SF-268
SF-295 = system: SF-295
SF-539 = system: SF-539
SK-MEL-28 = system: SK-MEL-28
SK-MEL-2 = system: SK-MEL-2
SK-MEL-5 = system: SK-MEL-5
SK-OV-3 = system: SK-OV-3
SN12C = system: SN12C
SNB-19 = system: SNB-19
SNB-75 = system: SNB-75
SR = system: SR
SW-620 = system: SW-620
T47D = system: T47D
TK-10 = system: TK-10
U-251 = system: U-251
UACC-257 = system: UACC-257
UACC-62 = system: UACC-62
UO-31 = system: UO-31

Cc1cnoc1/N=C1\C=C(O)C(=O)c2ccccc21 was tested, and the GI50 (786-0) was 53.2 µM (inactive), the GI50 (A498) was 29 µM (inactive) and the GI50 (A549) was 6.7 µM (inactive). For the same molecule, the GI50 (ACHN) was 21.8 µM (inactive), the GI50 (BT-549) was 4.9 µM (inactive) and the GI50 (CAKI-1) was 28.6 µM (inactive). For the same molecule, the GI50 (CCRF-CEM) was 16.1 µM (inactive), the GI50 (COLO 205) was 35.9 µM (inactive) and the GI50 (DU-145) was 18 µM (inactive). The GI50 (EKVX) was 29.5 µM (inactive), the GI50 (HCT-116) was 19.9 µM (inactive) and the GI50 (HCT-15) was 12.2 µM. The GI50 (HL-60) was 10 µM (inactive), the GI50 (HOP-62) was 10 µM (inactive) and the GI50 (HOP-92) was 29.4 µM (inactive). For the same molecule, the GI50 (HT-29) was 29 µM (inactive), the GI50 (Hs-578T) was 7.6 µM (inactive) and the GI50 (IGROV-1) was 22.8 µM (inactive). The GI50 (K562) was 1.73 µM (inactive), the GI50 (KM12) was 11.9 µM (inactive) and the GI50 (LOX IMVI) was 5.26 µM (inactive). The GI50 (M14) was 12.5 µM (inactive), the GI50 (MCF7) was 4.26 µM (inactive) and the GI50 (MDA-MB-231) was 25.6 µM (inactive). For the same molecule, the GI50 (MDA-MB-435) was 1.31 µM (inactive), the GI50 (MDA-N) was 1.26 µM (inactive) and the GI50 (MOLT-4) was 17.4 µM (inactive). For the same molecule, the GI50 (Malme-3M) was 3.02 µM (inactive), the GI50 (NCI-H226) was 35.3 µM (inactive) and the GI50 (NCI-H23) was 4.71 µM (inactive). The GI50 (NCI-H460) was 6.32 µM (inactive), the GI50 (NCI-H522) was 34.5 µM (inactive) and the GI50 (NCI/ADR-RES) was 8.45 µM (inactive). For the same molecule, the GI50 (OVCAR-3) was 5.26 µM (inactive), the GI50 (OVCAR-4) was 20.4 µM (inactive) and the GI50 (OVCAR-5) was 10.9 µM (inactive). For the same molecule, the GI50 (OVCAR-8) was 25.8 µM (inactive), the GI50 (PC-3) was 25.4 µM (inactive) and the GI50 (RPMI-8226) was 15.4 µM (inactive). The GI50 (SF-268) was 17.8 µM (inactive), the GI50 (SF-295) was 22.8 µM (inactive) and the GI50 (SF-539) was 21.4 µM (inactive). The GI50 (SK-MEL-28) was 29.9 µM (inactive), the GI50 (SK-MEL-2) was 2.82 µM (inactive) and the GI50 (SK-MEL-5) was 3.46 µM (inactive). For the same molecule, the GI50 (SK-OV-3) was > 100 µM (inactive), the GI50 (SN12C) was 1.77 µM (inactive) and the GI50 (SNB-19) was 16.3 µM (inactive). For the same molecule, the GI50 (SNB-75) was 10.4 µM (inactive), the GI50 (SR) was 33.6 µM (inactive) and the GI50 (SW-620) was 25.8 µM (inactive). The GI50 (T47D) was 27.9 µM (inactive), the GI50 (TK-10) was > 100 µM (inactive) and the GI50 (U-251) was 1.79 µM (inactive). For the same molecule, the GI50 (UACC-257) was 16.3 µM (inactive), the GI50 (UACC-62) was 4.71 µM (inactive) and the GI50 (UO-31) was 10.8 µM (inactive).

— ChEMBL document CHEMBL1201862, “PubChem BioAssay data set” (2004)
